The record followed here is patent publication US6916840B2, “Spla2 inhibitors” (Eli Lilly and Company, priority 2000, dated 2005).

System in the first series: not given
Assay: not given
Details: not given
`CCc1c(C(=O)C(N)=O)c2c(OCC(=O)OC)cc3ccccc3c2n1Cc1ccccc1` (hydrate or solvate) [Example 1, 2-[[3-(2-Amino-1,2-dioxoethyl)-2-ethyl-1-benzyl-1H-benz[g]indol-4-yl]oxy]acetic acid methyl ester hemihydrate] came in with a melting point of 165 to 167 °C.

The next series deals with T1, recombinant human secreted phospholipase A2 (sPLA2) (Homo sapiens, UniProt P14555).
T1 sequence (P14555 21-144): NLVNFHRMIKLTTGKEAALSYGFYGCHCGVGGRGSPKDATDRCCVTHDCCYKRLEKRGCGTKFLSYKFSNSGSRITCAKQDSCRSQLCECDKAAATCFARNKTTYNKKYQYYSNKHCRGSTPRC
The experiment in a line: chromogenic assay for inhibitors of recombinant human secreted phospholipase A2. It counts as biochemical. The conditions noted are these: diheptanoyl thio-PC substrate 1 mM, Triton X-100 mixed micelles, pH 7.5, 40° C. for 30 minutes, absorbance at 405 nm, triplicate. An excerpt:
The following chromogenic assay procedure was used to identify and evaluate inhibitors of recombinant human secreted phospholipase A2. The assay described herein has been adapted for high volume screening using 96 well microtiter plates. A general description of this assay method is found in the article, “Analysis of Human Synovial Fluid Phospholipase A2 on Short Chain Phosphatidylcholine-Mixed Micelles: Development of a Spectrophotometric Assay Suitable for a Microtiterplate Reader”, by Laure J. Reynolds, Lori L. Hughes, and Edward A Dennis, Analytical Biochemistry, 204, pp. 190-197, 1992 (the disclosure of which is incorporated herein by reference):
A measured volume of racemic dipheptanoyl thio PC supplied in chloroform at a concentration of 100 mg/ml is taken to dryness and redissolved in 10 millimolar TRITON X-100™ nonionic detergent aqueous solution. Reaction Buffer is added to the solution, then DTNB to give the Reaction Mixture.
The reaction mixture thus obtained contains 1 mM diheptanoly thio-PC substrate, 0.29 mm Triton X-100™ detergent, and 0.12 mm DTMB in a buffered aqueous solution at pH 7.5.
• 1. Add 0.2 ml reaction mixture to all wells; • 2. Add 10 ul test compound (or solvent blank) to appropriate wells, mix 20 seconds; • 3. Add 50 nanograms of sPLA2 (10 microliters) to appropriate wells; • 4. Incubate plate at 40° C. for 30 minutes; • 5. Read absorbance of wells at 405 nanometers with an automatic plate reader.
Tests were done in triplicate. Typically, compounds were tested at a final concentration of 5 ug/ml. […] Lack of color development at 405 nanometers evidenced inhibition. Compounds initially found to be active were re-assayed to confirm their activity and, if sufficiently active, IC50 values were determined. […] In all cases, % inhibition measured at 405 nanometers generated by enzyme reactions containing inhibitors relative to the uninhibited control reactions was determined. Each sample was titrated in triplicate and result values were averaged for plotting and calculation of IC50 values. IC50 values were determined by plotting log concentration versus inhibition values in the range from 10-90% inhibition.
`CCc1c(C(=O)C(N)=O)c2c(OCC(=O)O)cc3ccccc3c2n1Cc1ccccc1` [Example 2, 2-[[3-(2-Amino-1,2-dioxoethyl)-2-ethyl-1-benzyl-1H-benz[g]indol-4-yl]oxy]acetic acid]: the IC50 was 0.01 µM.

Turning to `Cc1c(C(=O)C(N)=O)c2c(OCC(=O)O)cc3ccccc3c2n1CC1CCCCC1` [Example 4, 2-[[3-(2-Amino-1,2-dioxoethyl)-2-methyl-1-cyclohexylmethyl-1H-benz[g]indol-4-yl]oxy]acetic acid], the IC50 turned out to be 0.011 µM. Still for that read-out and setting: for `CCc1c(C(=O)C(N)=O)c2c(OCC(=O)OC)cc3ccccc3c2n1Cc1ccccc1` [Example 1, 2-[[3-(2-Amino-1,2-dioxoethyl)-2-ethyl-1-benzyl-1H-benz[g]indol-4-yl]oxy]acetic acid methyl ester hemihydrate] the value was 0.048 µM; for `COC(=O)COc1cc2ccccc2c2c1c(C(=O)C(N)=O)c(C)n2CC1CCCCC1` [Example 3, 2-[[3-(2-amino-1,2-dioxoethyl)-2-methyl-1-cyclohexylmethyl-1H-benz[g]indol-4-yl]oxy]acetic acid methyl ester], 0.148 µM; for `Cc1c(C(=O)C(N)=O)c2c(OCC(=O)O)cc3ccccc3c2n1Cc1cccc(-c2ccc(F)cc2)c1` [Example 6, 2-[[3-(2-Amino-1,2-dioxoethyl)-2-methyl-1-[3-(4-fluorophenyl)benzyl]-1H-benz[g]indol-4-yl]oxy]acetic acid.], 0.021 µM. As to `COC(=O)COc1cc2ccccc2c2c1c(C(=O)C(N)=O)c(C)n2Cc1cccc(-c2ccc(F)cc2)c1` [Example 5, 2-[[3-(2-Amino-1,2-dioxoethyl)-2-methyl-1-[3-(4-fluorophenyl)benzyl]-1H-benz[g]indol-4-yl]oxy]acetic acid methyl ester], the IC50 came out at 0.176 µM.
